Four compounds from PubChem BioAssay AID743384 (Vanderbilt Specialized Chemistry Center, 2014) can be followed below.

Activity calls are given as the source filed them. No rule for the calls is given here.

The target of test [1] is Metabotropic glutamate receptor 7 (Rattus norvegicus) (UniProt P35400). In words: potentiation of glutamate EC20 at mGlu7 – cell-based, calcium mobilization, Galpha15, dose response (AID 743384). The settings on record: mGlu7/Ga15, calcium fluorescence PAM; stronger effect = higher value.
Metabotropic glutamate receptor 7 (Rattus norvegicus), sequence (P35400 whole entry, looked up): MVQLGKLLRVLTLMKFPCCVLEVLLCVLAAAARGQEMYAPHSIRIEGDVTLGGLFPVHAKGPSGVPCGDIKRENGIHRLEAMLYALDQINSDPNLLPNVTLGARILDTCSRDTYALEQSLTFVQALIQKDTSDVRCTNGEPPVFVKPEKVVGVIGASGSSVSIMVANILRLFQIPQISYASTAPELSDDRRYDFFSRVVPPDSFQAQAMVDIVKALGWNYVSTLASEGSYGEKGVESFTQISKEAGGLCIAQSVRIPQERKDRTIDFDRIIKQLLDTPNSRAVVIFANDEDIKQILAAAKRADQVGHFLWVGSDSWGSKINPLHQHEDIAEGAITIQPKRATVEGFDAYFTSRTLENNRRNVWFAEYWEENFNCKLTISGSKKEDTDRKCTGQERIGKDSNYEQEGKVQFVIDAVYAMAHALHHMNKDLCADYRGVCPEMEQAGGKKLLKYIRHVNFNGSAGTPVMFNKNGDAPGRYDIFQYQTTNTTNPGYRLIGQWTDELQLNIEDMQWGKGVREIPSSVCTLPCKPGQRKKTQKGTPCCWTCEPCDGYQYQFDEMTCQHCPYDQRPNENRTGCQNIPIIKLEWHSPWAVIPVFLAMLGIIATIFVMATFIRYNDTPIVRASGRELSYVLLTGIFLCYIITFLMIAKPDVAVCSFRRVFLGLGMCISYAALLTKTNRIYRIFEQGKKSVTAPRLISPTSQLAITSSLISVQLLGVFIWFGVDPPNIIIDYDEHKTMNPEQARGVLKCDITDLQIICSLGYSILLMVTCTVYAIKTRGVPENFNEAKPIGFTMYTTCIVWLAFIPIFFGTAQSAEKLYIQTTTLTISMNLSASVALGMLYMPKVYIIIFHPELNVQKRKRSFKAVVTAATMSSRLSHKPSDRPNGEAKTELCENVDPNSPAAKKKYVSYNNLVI
The target in test [2] is Metabotropic glutamate receptor 7 (Homo sapiens) (UniProt Q14831). The description is as above. The note with it: mGlu7/Ga15, calcium fluorescence PAM.
Metabotropic glutamate receptor 7 (Homo sapiens), sequence (Q14831 whole entry, looked up): as the sequence (P35400 whole entry, looked up) above, with G5R, V27A, H454N, T488S, S520A, N578D counted along it

On to `CCOc1ccc(-n2c(C)cc(C(=O)CSc3ccc(OC)cc3)c2C)cc1`, for which the “% glutamate max response” value in test [1] is “inactive”.
Turning to `COC(=O)c1ccc(-n2c(C)cc(C(=O)CSc3ccc(NC(C)=O)cc3)c2C)cc1`, the concentration for a half-maximal effect (EC50) in test [2] is 1.5 µM.
Regarding `COC(=O)c1ccc(-n2c(C)cc(C(=O)CNc3ccc(C(=O)O)cc3)c2C)cc1`, the “% glutamate max response” value in test [1] is “inactive”.
For the compound `COC(=O)c1ccc(-n2c(C)cc(C(=O)COc3cccc(N(C)C)c3)c2C)cc1`, the “% glutamate max response” value in test [1] is “inactive”.
